# Results reported in patent US5932555A (priority 1997, dated 1999).
# Key:
# [1] = system: P388; assay: Mouse in vivo antitumor test, P388 transplanted
# Method: 2×10^5 cells of P388 or P388/ADR were inoculated intraperitoneally into each of CDF1 mice (male, each weighing 20 g, 10 animals/group), and from the next day, the test solution was administered at 10, 5, and 1 mg/kg body weight/day respectively by intraperitoneal injection of 200 μl sample at each concentration once a day for 10 successive days. The numbers with time of mice which survived after administration was counted and the average survival days and T/C (survival days of treated mice/survival days of control mice) were calculated. The average body weights after 10 days were also measured.
# [2] = system: cytotoxic T cell induction by allogenic immunization; assay: In vivo mouse cytotoxic T cell induction test; parameters: species or system mouse (C57BL/6)
# Method: A 8-week-old, female C57BL/6 mouse (H-2^b) was immunized intraperitoneally with 0.2 ml of cultured cell line P815 suspension (5×10^7 cells/ml PBS) derived from DBA/2 (H-2^d), and 0.2 to 0.3 ml of 0.1 mg/ml sample was administered intraperitoneally at a dosage of 1 mg/kg body weight/day for 5 days including the day of immunization.
# To measure cytotoxic T cell activity, 100 μl of the effector cell suspension and 100 μl of the target cell suspension were put to each well on a 96-well round-bottomed microplate and incubated at 37° C. for 4 hours, and the cells were centrifuged and the amount of ^51 Cr released into the supernatant was measured and the cytotoxic T cell activity was calculated using the following equation 2:
# Cytotoxic T cell activity=A/B×100 (2)
# A: (radioactivity of effector cells+target cells)-(radioactivity of only target cells)
# B: (radioactivity of target cells treated with 0.1 N HCl)-(radioactivity of only target cells)
# The cytotoxic T cell activity was expressed in terms of lytic unit (LU). One LU is defined as the number of effector cells required for 20% lysis of 2×10^4 target cells, and the result is shown in LU per spleen.
# Similarly, the mouse was immunized and then administered 0.2 to 0.3 ml of 1 mg/ml of the sample (i.e. at a dosage of 10 mg/kg body weight/day) by intraperitoneal administration for 5 days and the cytotoxic activity was determined.
# [3] = system: CDF1 mice; assay: Repeated administration toxicity test (intraperitoneal); assay type: in vivo, mouse (CDF1); conditions: for Body weight, Day 0: Day 0 (baseline)
# Method: As the comparative control, test solutions of adriamycin were prepared in the same manner. […] The number with time of survived animals after administration and the average body weights on Days 0, 5, and 10 were determined.
# [4] = Solubility; assay type: physicochemical
# [5] = P388, 1 mg/kg/day i.p. × 10 days
# [6] = P388, 5 mg/kg/day i.p. × 10 days
# [7] = P388, 10 mg/kg/day i.p. × 10 days
compound,measurement,setting,value
COC(CC1C(C)=CCC2C1(C)CCC1C(C)(C)C(O)C(OC3OC(C)C(OC(=O)c4cccc(O)c4)C(OC4OC(CO)C(O)C(O)C4NC(C)=O)C3O)CC12C)C(N)C(=O)O (stereo not shown) [0406TP-1],T/C,[1]; [5],123%
same,average body weight after 10 days,[1]; [5],25.9 g
same,average survival days,[1]; [5],12.7 days
same,T/C,[1]; [6],123%
same,average body weight after 10 days,[1]; [6],26.3 g
same,average survival days,[1]; [6],12.7 days
same,T/C,[1]; [7],128%
same,average body weight after 10 days,[1]; [7],27.3 g
same,average survival days,[1]; [7],13.2 days
same,therapeutic effect (improvement in survival rate),"[1]; P388-transplanted mice, adriamycin 1 mg/kg/day vs 0406TP-1",same degree of therapeutic effect
same,Cytotoxic T cell activity,[2]; 1.0 mg/kg/day × 5 days i.p.,350 LU/spleen
same,Cytotoxic T cell activity inhibition,[2]; 1.0 mg/kg/day × 5 days i.p.,12%
same,Cytotoxic T cell activity,[2]; 10 mg/kg/day × 5 days i.p.,285 LU/spleen
same,Cytotoxic T cell activity inhibition,[2]; 10 mg/kg/day × 5 days i.p.,38%
same,inhibition of induction of cytotoxic T cells in spleen cells,"[2]; allogenic-immunized mouse, intraperitoneal, in words",inhibit induction of cytotoxic T cells
same,"Body weight, Day 0",[3]; 1 mg/kg/day i.p. group,22.0 g
same,"Body weight, Day 5",[3]; 1 mg/kg/day i.p.,23.1 g
same,"Body weight, Day 10",[3]; 1 mg/kg/day i.p.,25.0 g
same,"Body weight, Day 0",[3]; 5 mg/kg/day i.p. group,21.8 g
same,"Body weight, Day 5",[3]; 5 mg/kg/day i.p.,23.7 g
same,"Body weight, Day 10",[3]; 5 mg/kg/day i.p.,25.5 g
same,"Body weight, Day 0",[3]; 10 mg/kg/day i.p. group,21.4 g
same,"Body weight, Day 5",[3]; 10 mg/kg/day i.p.,23.6 g
same,"Body weight, Day 10",[3]; 10 mg/kg/day i.p.,25.4 g
same,Solubility,[4]; acetone,Insoluble
same,Solubility,[4]; chloroform,Insoluble
same,Solubility,[4]; ethanol,Soluble
same,Solubility,[4]; ether,Insoluble
same,Solubility,[4]; ethyl acetate,Insoluble
same,Solubility,[4]; methanol,Soluble
same,Solubility,[4]; water,Soluble
